Source: patent US20060247220A1, “Preventing the crystallization of cholesterol using oxysterols” (priority 2003, published 2006)

Key:
[1] = Crystallization of cholesterol from solution in sunflower seed oil at room temperature; assay type: physicochemical
Procedure: Cholesterol was partially oxidized by heating in an oven with air at 80° C.
A 140 mg portion of the partially oxidized cholesterol was placed in a glass tube and 2.6 mL sunflower seed oil was added. The same amount of oil was added to tubes containing 60, 80, 100, 120 and 140 mg of pure cholesterol. All the tubes were held in a heating block at 95° C. until the sterols were dissolved. They were then held at room temperature (about 24° C.) for at least 3 weeks.
To determine the maximum solubilizing effect of the oxysterols, 35 mg and 70 mg of pure cholesterol were added to tubes containing 140 mg of the partially oxidized cholesterol, and 2.6 mL oil was added to each tube. The mixtures were brought into solution as described above, and held at room temperature.

rabbits [2] = conditions: fed in diet; cited from earlier work
rabbits [3] = conditions: fed in diet; cited from earlier work; remark: listed apart in the source
rabbits [4] = conditions: in the diet, hydroperoxides added to cholesterol; cited from earlier work

crystallization on standing ([1]; 60 mg pure cholesterol in 2.6 mL sunflower seed oil, room temperature): crystallization did not occur | time to complete crystallization ([1]; 80, 100, 120 and 140 mg pure cholesterol in 2.6 mL sunflower seed oil, room temperature (about 24° C.)): about 1 hour
Compound: CC(C)CCC[C@@H](C)[C@H]1CC[C@H]2[C@@H]3CC=C4C[C@@H](O)CC[C@]4(C)[C@H]3CC[C@]12C [pure cholesterol, cholesterol]
atherosclerotic lesions (rabbits [2]): both elevated serum cholesterol and lesions | atherogenicity (rabbits [3]): much more atherogenic to rabbits than oxysterols or a mixture of cholesterol and oxysterols | atheroma / lesion formation in the aortas (rabbits [4]): extensive atheroma formation
